The record followed here is patent US4867973A, “Antibody-therapeutic agent conjugates” (Cytogen Corporation, priority 1984, dated 1989).

Ends that are not written are not given here. Peptide text beside a SMILES is read from it. * marks the point of attachment. AMC = Cc1cc(=O)oc2cc(N*)ccc12; Boc = CC(C)(C)OC(=O)*

Assay type in all cases: biochemical
Assay [1] has as its system trypsin. Nature of the assay: Release of 125I-Tyr from radiolabeled peptide by trypsin (agarose gel electrophoresis or TLC). As to conditions: trypsin 1 ug/ml; substrate 0.1 uM; 125I-Tyr release. As for the experimental part: (§1) For the purposes of the present example, the tetrapeptide Glycine-Glycine-Arginine-Tyrosine was radiolabeled at the amino acid residue tyrosine with 125 Iodine (125 I) (Greenwood et al. 1963, Biochem. J. 88: 114-120). This radiolabeled compound is hereinafter referred to as Gly-Gly-Arg-Tyr* (wherein the * denotes ^125 I).
(§2) The peptide Gly-Gly-Arg-Tyr* was assayed for the release of the 125I labeled tyrosine residue by agarose gel electrophoresis or thin-layer chromatography (TLC, Sono and Asakura, 1974, Biochem 13:4386-4394). Briefly, appropriate amounts of enzyme were added to a reaction tube containing 0.1 uM Gly-Gly-Arg-Tyr in PBS, pH 7.4. The mixture was incubated at 37° C. for 30 minutes. Three ul of this reaction mixture were then applied to an agarose gel (1%) and run at high voltage (120 V/cm) in Barbitol Buffer, 0.025 M sodium diethylbarbituate HCl buffer, pH 8.6. Three ul of bromophenol blue solution was used as a marker to determine the end of the run. The agarose gel was then cut into sections and counted in a LKB 1271 gamma counter (LKB Instruments, Gaithersburg, Md.) to determine if the Tyr remained at the origin or migrated through the gel. Alternatively, samples were separated and identified by TLC as described supra. […] The plate was dried and divided into ten sections which were counted in a gamma counter. […]

Assay [2] deals with T1, urokinase (Homo sapiens, UniProt P00749). Nature of the assay: Release of 125I-Tyr from radiolabeled peptide by urokinase (agarose gel electrophoresis or TLC). Conditions: urokinase 10 ug/ml; substrate 0.1 uM; 125I-Tyr release. As for the experimental part: as §1, §2
The target in assay [3] is T2, purified complement component C1s (Homo sapiens, UniProt P09871).
T2 construct: from tissue
T2 sequence (P09871 16-688): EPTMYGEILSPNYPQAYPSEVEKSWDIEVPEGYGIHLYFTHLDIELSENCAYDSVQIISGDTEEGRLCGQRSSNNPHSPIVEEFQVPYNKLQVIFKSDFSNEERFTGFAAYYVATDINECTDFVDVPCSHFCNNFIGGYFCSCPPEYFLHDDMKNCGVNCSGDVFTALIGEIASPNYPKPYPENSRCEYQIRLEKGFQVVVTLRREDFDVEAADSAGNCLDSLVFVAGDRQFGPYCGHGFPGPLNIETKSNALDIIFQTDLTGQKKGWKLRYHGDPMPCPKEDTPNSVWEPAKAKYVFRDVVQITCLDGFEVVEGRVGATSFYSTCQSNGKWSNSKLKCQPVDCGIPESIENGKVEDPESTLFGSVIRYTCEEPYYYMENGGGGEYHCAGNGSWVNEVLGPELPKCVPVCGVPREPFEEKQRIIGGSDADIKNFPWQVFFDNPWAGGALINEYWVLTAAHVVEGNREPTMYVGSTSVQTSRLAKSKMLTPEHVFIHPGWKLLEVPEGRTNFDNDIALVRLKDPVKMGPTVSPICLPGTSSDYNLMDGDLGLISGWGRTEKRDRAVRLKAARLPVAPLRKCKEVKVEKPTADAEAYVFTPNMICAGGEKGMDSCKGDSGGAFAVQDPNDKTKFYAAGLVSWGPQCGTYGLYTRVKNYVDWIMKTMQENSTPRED
Nature of the assay: Fluorescence assay of AMC release by purified complement component C1s. Conditions: 10 ug/ml enzyme; peptide 5 uM. An excerpt: The data in Table V compare the cleavage rates (nM/minute) of these sequences. The fluorescence assay described in Section 8 for cleavage of Gly-Gly-Arg-AMC was used here. Complement components were purified and assayed by the method of Tack and Prahl (Biochem., 1976, 15:4513-4521).

Assay [4] has as its target T3, purified complement component C4,2 (Homo sapiens, UniProt P06681).
T3 construct: from tissue
Nature of the assay: Fluorescence assay of AMC release by purified complement component C4,2. As to conditions: 40 ug/ml enzyme; peptide 5 uM. Here is the method:
(§3) Peptide sequences that are analogs of complement components were cleaved by trypsin (0.1 ug/ml), urokinase (0.1 ug/ml), plasmin (1 ug/ml) and purified complement components C4,2 and C1s (40 ug/ml). The data in Table V compare the cleavage rates (nM/minute) of these sequences. The fluorescence assay described in Section 8 for cleavage of Gly-Gly-Arg-AMC was used here. Complement components were purified and assayed by the method of Tack and Prahl (Biochem., 1976, 15:4513-4521).

In a further assay the target is plasmin (Homo sapiens, UniProt P00747). Nature of the assay: Fluorescence assay of AMC release by plasmin. Conditions: plasmin 1 ug/ml; peptide 5 uM. As for the experimental part: as §3
Chain of plasmin (P00747 581-810 limits assumed, species assumed): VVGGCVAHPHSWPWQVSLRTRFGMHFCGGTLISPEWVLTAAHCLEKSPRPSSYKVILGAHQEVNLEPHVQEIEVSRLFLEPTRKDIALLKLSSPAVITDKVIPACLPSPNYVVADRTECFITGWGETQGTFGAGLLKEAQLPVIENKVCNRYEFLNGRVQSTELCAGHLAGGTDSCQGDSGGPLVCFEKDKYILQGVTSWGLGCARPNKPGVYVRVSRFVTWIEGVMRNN
Chain of plasmin (P00747 97-580 partner limits assumed, species assumed): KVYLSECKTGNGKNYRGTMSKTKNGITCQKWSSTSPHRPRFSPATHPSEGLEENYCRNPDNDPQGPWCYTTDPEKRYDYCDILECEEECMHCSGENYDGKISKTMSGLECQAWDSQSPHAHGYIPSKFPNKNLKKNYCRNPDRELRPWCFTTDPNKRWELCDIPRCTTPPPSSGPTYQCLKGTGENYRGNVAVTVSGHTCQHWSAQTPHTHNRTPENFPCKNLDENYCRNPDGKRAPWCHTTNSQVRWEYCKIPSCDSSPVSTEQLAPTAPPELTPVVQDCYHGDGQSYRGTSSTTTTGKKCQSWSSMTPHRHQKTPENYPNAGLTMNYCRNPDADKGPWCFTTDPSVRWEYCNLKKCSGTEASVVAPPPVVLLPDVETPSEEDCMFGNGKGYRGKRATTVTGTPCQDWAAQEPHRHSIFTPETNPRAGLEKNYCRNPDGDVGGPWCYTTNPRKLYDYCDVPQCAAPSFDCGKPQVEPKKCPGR
Assay [5] relates to trypsin. Nature of the assay: Fluorescence assay of AMC release from peptide linker by trypsin. As to conditions: for Cleavage Rates, Trypsin: trypsin 0.1 ug/ml, peptide 5 uM. As for the experimental part:
(§4) The rates of cleavage for the peptide linker were measured by fluorescence quenching using a Perkin Elmer 650-10S fluorescence spectrometer (Perkin-Elmer Corporation, Norwalk, Conn.). The excitation and emission wavelengths were 380 nm and 460 nm, respectively and the temperature was maintained at 25° C. with a Lauda k-2/R circulating water bath (Brinkmann Instruments, Westbury, N.Y.).
(§5) The initial concentrations of Gly-Gly-Arg-AMC were determined by optical density, Σ^1M325 =16,000. The solutions were adjusted to 1 uM concentrations. One ml of the 1 uM solution in PBS, pH 7.4 was placed in a cuvette. The appropriate amounts of enzyme (1 ug/ml trypsin or 10 ug/ml urokinase) was then added at room temperature with stirring using a motor-driven syringe and the reaction kinetics were followed for several minutes. The fluorescence intensity of a known concentration of free AMC was established and used as a baseline to determine the change in units per nM/minute of free AMC in this fluorescence assay system.
(§6) In another experiment, the Gly-Gly-Arg-AMC concentration was 100 uM and the trypsin used at 100 ug/ml. In another embodiment of the present invention, the Gly-Gly-Arg-AMC was conjugated to oxidized dextran which can serve as a spacer as described in Section 5.4.3 (10,000 molecular weight) (Pharmacia Fine Chemicals, Piscataway, N.J.) by the methods of the present invention using a molar ratio of Gly-Gly-Arg-AMC to dextran of 58:1. Dextran-Gly-Gly-Arg-AMC was separated with a 6.5 ml Sephadex® G-25 column (Pharmacia Fine Chemicals, Piscataway, N.J.).
as §3

The target of assay [6] is T1, urokinase. Briefly: Fluorescence assay of AMC release from peptide linker by urokinase. As to conditions: urokinase 0.1 ug/ml; peptide 5 uM. Here is the method:
as §4, §5, §6, §3

T3 sequence (P06681 244-752 limits assumed): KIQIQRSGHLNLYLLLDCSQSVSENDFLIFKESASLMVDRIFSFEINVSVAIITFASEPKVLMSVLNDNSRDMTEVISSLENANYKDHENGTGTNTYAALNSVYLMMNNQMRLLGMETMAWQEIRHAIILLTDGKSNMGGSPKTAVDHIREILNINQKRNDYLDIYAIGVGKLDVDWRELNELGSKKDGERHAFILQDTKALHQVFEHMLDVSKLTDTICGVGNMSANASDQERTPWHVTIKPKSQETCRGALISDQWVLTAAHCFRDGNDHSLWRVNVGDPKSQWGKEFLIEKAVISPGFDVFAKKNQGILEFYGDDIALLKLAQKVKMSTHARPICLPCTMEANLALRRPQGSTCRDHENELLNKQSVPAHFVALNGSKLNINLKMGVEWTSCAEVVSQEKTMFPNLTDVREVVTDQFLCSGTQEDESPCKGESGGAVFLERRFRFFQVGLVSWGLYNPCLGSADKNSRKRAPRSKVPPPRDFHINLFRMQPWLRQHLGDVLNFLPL
T3 sequence (P0C0L4 20-675 partner limits assumed): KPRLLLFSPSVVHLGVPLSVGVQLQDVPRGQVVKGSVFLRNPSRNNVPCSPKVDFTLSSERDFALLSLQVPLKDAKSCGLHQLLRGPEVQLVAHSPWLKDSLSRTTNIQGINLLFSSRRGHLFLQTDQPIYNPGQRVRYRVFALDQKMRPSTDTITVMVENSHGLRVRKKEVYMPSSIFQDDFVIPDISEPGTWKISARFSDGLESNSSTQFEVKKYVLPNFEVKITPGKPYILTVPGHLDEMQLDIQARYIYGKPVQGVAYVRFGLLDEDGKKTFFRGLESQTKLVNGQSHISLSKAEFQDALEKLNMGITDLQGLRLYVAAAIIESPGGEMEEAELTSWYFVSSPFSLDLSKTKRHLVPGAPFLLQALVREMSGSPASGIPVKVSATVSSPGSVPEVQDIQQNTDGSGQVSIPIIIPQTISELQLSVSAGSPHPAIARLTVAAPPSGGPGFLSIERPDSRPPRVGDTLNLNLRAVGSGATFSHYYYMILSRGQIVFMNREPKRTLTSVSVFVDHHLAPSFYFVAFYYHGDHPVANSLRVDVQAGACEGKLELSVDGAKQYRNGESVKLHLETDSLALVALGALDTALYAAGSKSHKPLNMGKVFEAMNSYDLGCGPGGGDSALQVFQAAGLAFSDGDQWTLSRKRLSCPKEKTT
T3 sequence (P0C0L4 757-1446 partner limits assumed): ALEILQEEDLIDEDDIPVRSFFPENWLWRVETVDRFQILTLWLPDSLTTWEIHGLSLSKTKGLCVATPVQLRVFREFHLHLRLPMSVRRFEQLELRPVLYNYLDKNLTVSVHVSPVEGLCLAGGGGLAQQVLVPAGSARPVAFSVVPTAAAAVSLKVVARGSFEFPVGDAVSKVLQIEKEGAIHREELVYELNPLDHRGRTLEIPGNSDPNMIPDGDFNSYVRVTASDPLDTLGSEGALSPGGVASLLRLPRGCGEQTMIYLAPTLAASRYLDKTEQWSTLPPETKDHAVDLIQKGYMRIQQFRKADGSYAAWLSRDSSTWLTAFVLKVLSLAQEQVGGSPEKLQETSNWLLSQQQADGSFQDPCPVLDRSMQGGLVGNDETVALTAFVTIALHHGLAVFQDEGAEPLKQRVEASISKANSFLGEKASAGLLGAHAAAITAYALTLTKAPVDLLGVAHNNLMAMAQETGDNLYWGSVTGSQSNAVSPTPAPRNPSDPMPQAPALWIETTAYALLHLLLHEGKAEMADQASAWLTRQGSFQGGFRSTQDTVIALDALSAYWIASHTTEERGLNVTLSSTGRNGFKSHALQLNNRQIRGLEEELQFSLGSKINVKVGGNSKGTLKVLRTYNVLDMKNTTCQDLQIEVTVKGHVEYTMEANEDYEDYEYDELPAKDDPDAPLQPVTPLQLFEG
T3 sequence (P0C0L4 1454-1744 partner limits assumed): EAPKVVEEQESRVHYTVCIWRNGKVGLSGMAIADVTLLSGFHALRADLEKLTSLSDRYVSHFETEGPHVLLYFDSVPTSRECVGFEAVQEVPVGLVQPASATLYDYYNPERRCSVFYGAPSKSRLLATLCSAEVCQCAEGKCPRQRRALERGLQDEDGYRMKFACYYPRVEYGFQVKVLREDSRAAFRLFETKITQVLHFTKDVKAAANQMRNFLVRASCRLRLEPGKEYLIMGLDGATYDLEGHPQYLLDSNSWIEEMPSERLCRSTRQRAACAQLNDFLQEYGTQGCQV

On to “Glycine-Glycine-Arginine-Tyrosine [Gly--Gly--Arg--Tyr*]”, for which the “Cleavage Rates Released Group, Trypsin” value in the assay with trypsin [1] came out at 4 nM/min. Also, at urokinase [2], the “Cleavage Rates Released Group, Urokinase” value is “.01 nM/min”.

Regarding `Cc1cc(=O)oc2cc(NC(=O)[C@H](CCCNC(=N)N)NC(=O)CNC(=O)CN)ccc12` [Gly--Gly--Arg--AMC, Gly-Gly-Arg-AMC], the “Cleavage Rates, complement component (column head drawing 18)” value in assay [3] was 0.9 to 1.2 nM/min. For the same compound, the “Cleavage Rates, complement component (column head drawing 17)” value in assay [4] was in the range of 0.9 to 1.2 nM/min. Besides, the “Cleavage Rates, Plasmin” value at plasmin was determined as 0.005 nM/min. Further, the “Cleavage Rates, Trypsin” value with trypsin [5] came to 450 nM/min. The “Cleavage Rates Released Group, Trypsin” value with trypsin [5] (trypsin 100 ug/ml, substrate 100 uM) is listed as 20,000 nM/min. Moreover, on urokinase [6], the “Cleavage Rates, Urokinase” value is 27 nM/min.

As to `Cc1cc(=O)oc2cc(NC(=O)[C@H](CCCNC(=N)N)NC(=O)[C@H](CCCNC(=N)N)NC(=O)[C@H](CCC(=O)O)NC(=O)OC(C)(C)C)ccc12` [Boc-Glu-Arg-Arg-AMC] (Boc-Glu-Arg-Arg-{AMC}), in the assay on trypsin [5], the “Cleavage Rates, Trypsin” value is on record as 3.7 nM/min. For the same compound, the “Cleavage Rates, Urokinase” value at urokinase [6] is on record as 0 nM/min.

Turning to `Cc1cc(=O)oc2cc(NC(=O)[C@H](CCCNC(=N)N)NC(=O)[C@@H]3CCCN3C(=O)[C@@H](NC(=O)OC(C)(C)C)C(C)C)ccc12` [Boc-Val-Pro-Arg-AMC] (Boc-Val-Pro-Arg-{AMC}), the “Cleavage Rates, Trypsin” value with trypsin [5] came out at 3.8 nM/min. Besides, the “Cleavage Rates, Urokinase” value at urokinase [6] stood at 0 nM/min.

On to “PGRVVGY [Pro--Gly--Arg--Val--Val--Gly--Tyr*, plasminogen analog]”, for which the “Cleavage Rates Released Group, Trypsin” value with trypsin [1] turned out to be 3 nM/min. Moreover, in the assay with urokinase [2], the “Cleavage Rates Released Group, Urokinase” value is “.01 nM/min”.

As to `Cc1cc(=O)oc2cc(NC(=O)[C@H](CCCCN)NC(=O)[C@H](CCCCN)NC(=O)[C@@H](N)CCC(=O)O)ccc12` [Glu-Lys-Lys-AMC] (H-Glu-Lys-Lys-{AMC}), the “Cleavage Rates, Trypsin” value with trypsin [5] amounted to 0.62 nM/min. Besides, the “Cleavage Rates, Urokinase” value on urokinase [6] is listed as 0 nM/min.

For `Cc1cc(=O)oc2cc(NC(=O)[C@H](CCCNC(=N)N)NC(=O)[C@H](CO)NC(=O)[C@H](Cc3ccccc3)NC(=O)OC(C)(C)C)ccc12` [Boc-Phe-Ser-Arg-AMC] (Boc-Phe-Ser-Arg-{AMC}), the “Cleavage Rates, Trypsin” value in the assay on trypsin [5] worked out at 17 nM/min. Moreover, the “Cleavage Rates, Urokinase” value on urokinase [6] is listed as 0.044 nM/min.

Consider `Cc1cc(=O)oc2cc(NC(=O)[C@H](CCCNC(=N)N)NC(=O)[C@H](Cc3ccccc3)NC(=O)[C@@H]3CCCN3)ccc12` [Pro-Phe-Arg-AMC] (H-Pro-Phe-Arg-{AMC}), for which the “Cleavage Rates, Trypsin” value in the assay with trypsin [5] stood at 0 nM/min. Moreover, the “Cleavage Rates, Urokinase” value on urokinase [6] came out at 0 nM/min.

As to `Cc1cc(=O)oc2cc(NC(=O)[C@H](CCCNC(=N)N)NC(=O)CNC(=O)[C@@H](N)CCC(=O)O)ccc12` [Glu-Gly-Arg-AMC] (H-Glu-Gly-Arg-{AMC}), the “Cleavage Rates, Trypsin” value with trypsin [5] turned out to be 140 nM/min. Besides, the “Cleavage Rates, Urokinase” value on urokinase [6] is on record as 35 nM/min.

For the compound `Cc1cc(=O)oc2cc(NC(=O)[C@H](CCCNC(=N)N)NC(=O)CNC(=O)[C@@H](NC(=O)OC(C)(C)C)C(C)C)ccc12` [Boc-Val-Gly-Arg-AMC] (Boc-Val-Gly-Arg-{AMC}), the “Cleavage Rates, Trypsin” value in the assay with trypsin [5] is listed as 720 nM/min. Besides, the “Cleavage Rates, Urokinase” value at urokinase [6] came to 2.8 nM/min.

On to `Cc1cc(=O)oc2cc(NC(=O)[C@H](CCCNC(=N)N)NC(=O)CNC(=O)[C@H](CC(C)C)NC(=O)OC(C)(C)C)ccc12` [Boc-Leu-Gly-Arg-AMC, Boc-leu-gly-arg-7-amino-4-methylcoumarin] (Boc-Leu-Gly-Arg-{AMC}), for which the “Cleavage Rates, Trypsin” value with trypsin [5] worked out at 750 nM/min. Further, on urokinase [6], the “Cleavage Rates, Urokinase” value was found to be 3.7 nM/min.
